Biological target: T1, ZAP-70 (Homo sapiens, UniProt P43403)
T1 sequence (P43403 1-619): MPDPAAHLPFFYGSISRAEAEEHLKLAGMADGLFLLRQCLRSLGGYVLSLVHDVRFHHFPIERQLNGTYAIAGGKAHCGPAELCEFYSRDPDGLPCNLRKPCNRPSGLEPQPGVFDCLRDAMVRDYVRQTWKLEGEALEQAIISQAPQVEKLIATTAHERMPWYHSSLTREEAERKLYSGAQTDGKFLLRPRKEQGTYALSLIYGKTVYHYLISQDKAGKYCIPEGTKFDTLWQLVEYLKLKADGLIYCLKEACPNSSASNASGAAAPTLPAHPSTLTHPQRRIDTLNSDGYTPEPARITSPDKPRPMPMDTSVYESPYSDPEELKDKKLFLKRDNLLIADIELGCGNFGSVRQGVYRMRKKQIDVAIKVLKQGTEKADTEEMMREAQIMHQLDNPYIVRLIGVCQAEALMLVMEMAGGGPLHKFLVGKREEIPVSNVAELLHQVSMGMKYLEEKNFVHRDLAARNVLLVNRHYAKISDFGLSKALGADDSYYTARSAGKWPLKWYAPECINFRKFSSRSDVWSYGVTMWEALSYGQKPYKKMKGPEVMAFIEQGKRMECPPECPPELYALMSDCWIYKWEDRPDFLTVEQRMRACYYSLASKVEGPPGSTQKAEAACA
Experiment: DELFIA assay (ZAP-70 kinase, phosphorylation of biotinylated poly(glu,tyr))
Type: biochemical
Conditions: ZAP-70 DELFIA, class symbols; read-out: Activity (IC50 in vitro)
How it was run: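 3.1 nM ZAP-70 pre-incubated 10 min at room temperature with compound ([…]) and 62.5 nM biotinylated poly(glu,tyr) in 62.5 mM Mops pH 7.0, 12.5 mM MgCl2, 12.5% glycerol, 6.25% DMSO (pre-incubation concentrations); ATP added from 5 mM stock, 30 min reaction, EDTA stop. Phosphorylation read by DELFIA europium anti-phosphotyrosine fluorescence (340/615).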

IC50, > 10 µM:
N#Cc1ccc(-c2ccc3nc(N[C@@H]4CCc5ccccc54)cc(C(=O)N4CCC[C@H]4CN4CCCC4)c3c2)cc1 [Compound 182], N#Cc1ccc(-c2ccc3nc(N[C@H]4CCc5ccccc54)cc(C(=O)N4CCC[C@H]4CN4CCCC4)c3c2)cc1 [Compound 183], CC[C@@H](Nc1cc(C(=O)N2CCC[C@H]2CN2CCCC2)c2cc(-c3ccc(C#N)cc3)ccc2n1)c1ccccc1 [Compound 184], COC[C@H](Cc1ccccc1)Nc1cc(C(=O)N2CCC[C@H]2CN2CCCC2)c2cc(-c3ccc(C#N)cc3)ccc2n1 [Compound 185], C[C@@H](CNc1cc(C(=O)N2CCC[C@H]2CN2CCCC2)c2cc(-c3ccc(C#N)cc3)ccc2n1)c1ccccc1 [Compound 186], C[C@H](CNc1cc(C(=O)N2CCC[C@H]2CN2CCCC2)c2cc(-c3ccc(C#N)cc3)ccc2n1)c1ccccc1 [Compound 187], N#Cc1ccc(-c2ccc3nc(NCc4cc(F)cc(F)c4)cc(C(=O)N4CCC[C@H]4CN4CCCC4)c3c2)cc1 [Compound 188], N#Cc1ccc(-c2ccc3nc(NCc4cc(Cl)cc(Cl)c4)cc(C(=O)N4CCC[C@H]4CN4CCCC4)c3c2)cc1 [Compound 189], N#Cc1ccc(-c2ccc3nc(NCc4cccc(OC(F)(F)F)c4)cc(C(=O)N4CCC[C@H]4CN4CCCC4)c3c2)cc1 [Compound 190], N#Cc1ccc(-c2ccc3nc(NCCc4ccccc4F)cc(C(=O)N4CCC[C@H]4CN4CCCC4)c3c2)cc1 [Compound 191], N#Cc1ccc(-c2ccc3nc(NCCc4ccc(F)cc4)cc(C(=O)N4CCC[C@H]4CN4CCCC4)c3c2)cc1 [Compound 192], N#Cc1ccc(-c2ccc3nc(NCCc4ccc(Cl)cc4Cl)cc(C(=O)N4CCC[C@H]4CN4CCCC4)c3c2)cc1 [Compound 193], N#Cc1ccc(-c2ccc3nc(NCCc4cccc(F)c4)cc(C(=O)N4CCC[C@H]4CN4CCCC4)c3c2)cc1 [Compound 194], N#Cc1ccc(-c2ccc3nc(NCc4cc(F)cc(C(F)(F)F)c4)cc(C(=O)N4CCC[C@H]4CN4CCCC4)c3c2)cc1 [Compound 195], N#Cc1ccc(-c2ccc3nc(NCCc4cccc(Cl)c4)cc(C(=O)N4CCC[C@H]4CN4CCCC4)c3c2)cc1 [Compound 196], COc1cccc(CCNc2cc(C(=O)N3CCC[C@H]3CN3CCCC3)c3cc(-c4ccc(C#N)cc4)ccc3n2)c1 [Compound 197], N#Cc1ccc(-c2ccc3nc(NCc4ccc(F)cc4F)cc(C(=O)N4CCC[C@H]4CN4CCCC4)c3c2)cc1 [Compound 198], C[C@@H](c1ccccc1)N(C)c1cc(C(=O)N2CCC[C@H]2CN2CCCC2)c2cc(-c3ccc(C#N)cc3)ccc2n1 [Compound 199], C[C@H](c1ccccc1)N(C)c1cc(C(=O)N2CCC[C@H]2CN2CCCC2)c2cc(-c3ccc(C#N)cc3)ccc2n1 [Compound 200], C[C@@H](Nc1cc(C(=O)N2CCC[C@H]2CN2CCCC2)c2cc(-c3ccc(C#N)cc3)ccc2n1)c1ccccc1 [Compound 201], COc1ccc([C@@H](C)Nc2cc(C(=O)N3CCC[C@H]3CN3CCCC3)c3cc(-c4ccc(C#N)cc4)ccc3n2)cc1 [Compound 202], COc1cccc([C@@H](C)Nc2cc(C(=O)N3CCC[C@H]3CN3CCCC3)c3cc(-c4ccc(C#N)cc4)ccc3n2)c1 [Compound 203], COc1cccc([C@H](C)Nc2cc(C(=O)N3CCC[C@H]3CN3CCCC3)c3cc(-c4ccc(C#N)cc4)ccc3n2)c1 [Compound 204], N#Cc1ccc(-c2ccc3nc(N[C@@H]4CCCc5ccccc54)cc(C(=O)N4CCC[C@H]4CN4CCCC4)c3c2)cc1 [Compound 205], N#Cc1ccc(-c2ccc3nc(N[C@H]4CCCc5ccccc54)cc(C(=O)N4CCC[C@H]4CN4CCCC4)c3c2)cc1 [Compound 206], C[C@@H](Nc1cc(C(=O)N2CCC[C@H]2CN2CCCC2)c2cc(-c3ccc(C#N)cc3)ccc2n1)c1ccc2ccccc2c1 [Compound 207], CC(Nc1cc(C(=O)N2CCC[C@H]2CN2CCCC2)c2cc(-c3ccc(C#N)cc3)ccc2n1)c1ccc2ccccc2c1 (stereo partly shown) [Compound 208], N#Cc1ccc(-c2ccc3nc(N[C@@H]4c5ccccc5C[C@@H]4O)cc(C(=O)N4CCC[C@H]4CN4CCCC4)c3c2)cc1 [Compound 209], N#Cc1ccc(-c2ccc3nc(N(Cc4ccccc4)Cc4ccccc4)cc(C(=O)N4CCC[C@H]4CN4CCCC4)c3c2)cc1 [Compound 210], CN(Cc1ccccc1Cl)c1cc(C(=O)N2CCC[C@H]2CN2CCCC2)c2cc(-c3ccc(C#N)cc3)ccc2n1 [Compound 211], N#Cc1ccc(-c2ccc3nc(N(CCO)Cc4ccccc4)cc(C(=O)N4CCC[C@H]4CN4CCCC4)c3c2)cc1 [Compound 212], N#Cc1ccc(-c2ccc3nc(N(CCCO)Cc4ccccc4)cc(C(=O)N4CCC[C@H]4CN4CCCC4)c3c2)cc1 [Compound 213], C[C@@H](Nc1cc(C(=O)N2CCC[C@H]2CN2CCCC2)c2cc(-c3ccc(C#N)cc3)ccc2n1)[C@@H](O)c1ccccc1 [Compound 214], N#Cc1ccc(-c2ccc3nc(N4CCc5[nH]c6c(F)cccc6c5C4)cc(C(=O)N4CCC[C@H]4CN4CCCC4)c3c2)cc1 [Compound 215], N#Cc1ccc(-c2ccc3nc(NCc4cccc5ccccc45)cc(C(=O)N4CCC[C@H]4CN4CCCC4)c3c2)cc1 [Compound 216], N#Cc1ccc(-c2ccc3nc(NCc4cccc(-c5ccccc5)c4)cc(C(=O)N4CCC[C@H]4CN4CCCC4)c3c2)cc1 [Compound 217], C[C@H](c1cccc2ccccc12)N(C)c1cc(C(=O)N2CCC[C@H]2CN2CCCC2)c2cc(-c3ccc(C#N)cc3)ccc2n1 [Compound 218], C[C@@H](c1cccc2ccccc12)N(C)c1cc(C(=O)N2CCC[C@H]2CN2CCCC2)c2cc(-c3ccc(C#N)cc3)ccc2n1 [Compound 219], N#Cc1ccc(-c2ccc3nc(NCCc4ccc(Cl)c(Cl)c4)cc(C(=O)N4CCC[C@H]4CN4CCCC4)c3c2)cc1 [Compound 220], C[C@H](Nc1cc(C(=O)N2CCC[C@H]2CN2CCCC2)c2cc(-c3ccc(C#N)cc3)ccc2n1)c1ccc(Br)cc1 [Compound 221], CC(Nc1cc(C(=O)N2CCC[C@H]2CN2CCCC2)c2cc(-c3ccc(C#N)cc3)ccc2n1)c1ccc(Br)cc1 (stereo partly shown) [Compound 222], CC(Nc1cc(C(=O)N2CCC[C@H]2CN2CCCC2)c2cc(-c3ccc(C#N)cc3)ccc2n1)c1ccc(F)cc1 (stereo partly shown) [Compound 223], Cc1ccc(CNc2cc(C(=O)N3CCC[C@H]3CN3CCCC3)c3cc(-c4ccc(C#N)cc4)ccc3n2)c(C)c1 [Compound 224], Cc1cc(CNc2cc(C(=O)N3CCC[C@H]3CN3CCCC3)c3cc(-c4ccc(C#N)cc4)ccc3n2)ccc1F [Compound 225], Cc1ccc(F)cc1CNc1cc(C(=O)N2CCC[C@H]2CN2CCCC2)c2cc(-c3ccc(C#N)cc3)ccc2n1 [Compound 226], Cc1ccc(CNc2cc(C(=O)N3CCC[C@H]3CN3CCCC3)c3cc(-c4ccc(C#N)cc4)ccc3n2)cc1F [Compound 227], CSc1ccccc1CNc1cc(C(=O)N2CCC[C@H]2CN2CCCC2)c2cc(-c3ccc(C#N)cc3)ccc2n1 [Compound 228], N#Cc1ccc(-c2ccc3nc(NCc4cccc(Cl)c4F)cc(C(=O)N4CCC[C@H]4CN4CCCC4)c3c2)cc1 [Compound 229], N#Cc1ccc(-c2ccc3nc(NCc4cc(Cl)ccc4F)cc(C(=O)N4CCC[C@H]4CN4CCCC4)c3c2)cc1 [Compound 230], N#Cc1ccc(-c2ccc3nc(NCc4csc5ccccc45)cc(C(=O)N4CCC[C@H]4CN4CCCC4)c3c2)cc1 [Compound 231], N#Cc1ccc(-c2ccc3nc(NCc4ccccc4OC(F)F)cc(C(=O)N4CCC[C@H]4CN4CCCC4)c3c2)cc1 [Compound 232], N#Cc1ccc(-c2ccc3nc(NCc4ccc(OC(F)F)cc4)cc(C(=O)N4CCC[C@H]4CN4CCCC4)c3c2)cc1 [Compound 233]

Source: patent US20080119515A1, “Heterocyclic Kinase Inhibitors: Methods of Use and Synthesis” (priority 2003, published 2008)
